Bridge positions count the residues as written; N and C are the ends. Square brackets hold non-standard residues; d marks the D form. Peptide text beside a SMILES is read from it. * marks the point of attachment. hPhe(3-Cl-4-CF3) = N[C@@H](CCc1ccc(C(F)(F)F)c(Cl)c1)C(=O)O; NMePhe(4-CF3) = CN[C@@H](Cc1ccc(C(F)(F)F)cc1)C(=O)O; hPhe(4-CF3) = N[C@@H](CCc1ccc(C(F)(F)F)cc1)C(=O)O; 3Oxa8azabicyclo(3.2.1)octane = C1CC2COCC1N2*; NMePhe(4-Cl) = CN[C@@H](Cc1ccc(Cl)cc1)C(=O)O; NMePhe(4-Me) = CN[C@@H](Cc1ccc(C)cc1)C(=O)O; NMePhe(4-F) = CN[C@@H](Cc1ccc(F)cc1)C(=O)O; NMeGly(cPent) = CN[C@H](C(=O)O)C1CCCC1; Phe(3-I) = N[C@@H](Cc1cccc(I)c1)C(=O)O; Phe(2-F) = N[C@@H](Cc1ccccc1F)C(=O)O; NMeCha = CN[C@@H](CC1CCCCC1)C(=O)O; NMeChg = CN[C@H](C(=O)O)C1CCCCC1; NMeF = CN[C@@H](Cc1ccccc1)C(=O)O; NMeI = CC[C@H](C)[C@H](NC)C(=O)O; Gly(cPr) = N[C@H](C(=O)O)C1CC1; NMeD = CN[C@@H](CC(=O)O)C(=O)O; NMeL = CN[C@@H](CC(C)C)C(=O)O; NMePra = C#CC[C@H](NC)C(=O)O; NMeV = CN[C@H](C(=O)O)C(C)C; d(β3hA) = C[C@@H](N)CC(=O)O; dPip = O=C(O)[C@H]1CCCCN1; NMeA = CN[C@@H](C)C(=O)O; NMeAib = CNC(C)(C)C(=O)O; Piperidide = C1CCN(*)CC1; Ac5c = NC1(C(=O)O)CCCC1; Aze = O=C(O)[C@@H]1CCN1; NcPrGly = O=C(O)CNC1CC1; βAla = NCCC(=O)O; Sar = CNCC(=O)O

In the experiment the test system is Human pancreatic cancer cell line AsPC-1 (G12D mutation Kras). Put plainly: AsPC-1 cell growth inhibition (AsPC-1 CGI). In kind it is cell-based. As to conditions: read-out: AsPC-1 cell growth inhibition, 50% growth inhibitory concentration (IC50 value); 96 hours, CellTiter-Glo, values classified in ranges.
Method: Test compounds were serially dilated with dimethyl sulfoxide, and 200 nL was then dispensed to a U-bottom 96-well plate using Labcyte Echo. […] The cell suspension was dispensed to a. plate containing a test compound at 100 μL per well and incubated at 37° C. in a 5% carbon dioxide gas incubator. 96 hours later, 80 μL of CellTiter-Glo (Promega) was added to each well and fluorescence was measured.
Consider `CC[C@H](C)[C@@H]1NC(=O)[C@H](CC(C)C)N(C)C(=O)C[C@@H](C(=O)N2CCCCC2)N(C)C(=O)[C@H](C2CCCCC2)N(C)C(=O)C2(CCCC2)NC(=O)[C@H](Cc2ccccc2)N(C)C(=O)[C@H](CCc2ccc(C(F)(F)F)c(Cl)c2)NC(=O)CN(C)C(=O)[C@H](CC2CCCCC2)N(C)C(=O)[C@@H]2CCN2C(=O)CN(C)C1=O` [Compound 527] ([NMeL]I[Sar][Aze][NMeCha][Sar][hPhe(3-Cl-4-CF3)][NMeF][Ac5c][NMeChg][NMeD]-Piperidide; lactam N-11), for which the IC50 was more than 500 nM.
With `CC[C@H](C)[C@@H]1NC(=O)CCNC(=O)[C@H](Cc2ccc(F)cc2)N(C)C(=O)[C@H](C2CCCCC2)N(C)C(=O)C2(CCCC2)NC(=O)[C@@H]2CCCN2C(=O)[C@H](CCc2ccc(C(F)(F)F)c(Cl)c2)NC(=O)CN(C)C(=O)[C@H](CC2CCCCC2)N(C)C(=O)CN(C)C(=O)CN(C)C1=O` [Compound 528] (cyclo([Ac5c][NMeChg][NMePhe(4-F)][βAla]I[Sar][Sar][NMeCha][Sar][hPhe(3-Cl-4-CF3)]P)) the figure was more than 500 nM.
With `CC(C)C[C@H]1C(=O)N[C@@H](C2CC2)C(=O)N(C)CC(=O)N(C)CC(=O)N(C)[C@@H](CC2CCCCC2)C(=O)N(C)CC(=O)N[C@@H](CCc2ccc(C(F)(F)F)c(Cl)c2)C(=O)N2CCC[C@H]2C(=O)NC2(CCCC2)C(=O)N(C)[C@@H](C(C)C)C(=O)N(C)[C@H](C(=O)N2CCCCC2)CC(=O)N1C` [Compound 533] ([NMeL][Gly(cPr)][Sar][Sar][NMeCha][Sar][hPhe(3-Cl-4-CF3)]P[Ac5c][NMeV][NMeD]-Piperidide; lactam N-11) the figure was more than 500 nM.
Consider `CC[C@H](C)[C@@H]1NC(=O)[C@H](C(C)C)N(C)C(=O)C[C@@H](C)NC(=O)[C@H](CC(C)C)N(C)C(=O)C2(CCCC2)NC(=O)[C@H](CC(C)C)N(C)C(=O)[C@H](CCc2ccc(C(F)(F)F)cc2)NC(=O)CN(C)C(=O)[C@H](Cc2ccc(Cl)cc2)N(C)C(=O)CN(C)C(=O)[C@@H]2CCN2C1=O` [Compound 538] (cyclo([Ac5c][NMeL][d(β3hA)][NMeV]I[Aze][Sar][NMePhe(4-Cl)][Sar][hPhe(4-CF3)][NMeL])), for which the IC50 is more than 500 nM.
In the case of `CC[C@H](C)[C@@H]1NC(=O)[C@H](CC(C)C)N(C)C(=O)C[C@@H](C)NC(=O)[C@H](C(C)C)N(C)C(=O)C2(CCCC2)NC(=O)[C@@H]2CCCN2C(=O)[C@H](CCc2ccc(C(F)(F)F)c(Cl)c2)NC(=O)CN(C)C(=O)[C@H](CC2CCCCC2)N(C)C(=O)CN(C)C(=O)CN(C2CC2)C1=O` [Compound 542] (cyclo([Ac5c][NMeV][d(β3hA)][NMeL]I[NcPrGly][Sar][NMeCha][Sar][hPhe(3-Cl-4-CF3)]P)), the IC50 is more than 500 nM.
In the case of `CC[C@H](C)[C@@H]1NC(=O)[C@H](CC(C)C)N(C)C(=O)C[C@@H](C(=O)N2C3CCC2COC3)N(C)C(=O)[C@H]([C@@H](C)CC)N(C)C(=O)C2(CCCC2)NC(=O)[C@@H]2CCCN2C(=O)[C@H](CCc2ccc(C(F)(F)F)c(Cl)c2)NC(=O)CN(C)C(=O)[C@H](Cc2ccc(C(F)(F)F)cc2)N(C)C(=O)[C@@H]2CCN2C(=O)[C@H](C)N(C)C1=O` [Compound 545] ([NMeL]I[NMeA][Aze][NMePhe(4-CF3)][Sar][hPhe(3-Cl-4-CF3)]P[Ac5c][NMeI][NMeD]-{3Oxa8azabicyclo(3.2.1)octane}; lactam N-11), the IC50 is not above 20 nM.
With `CC[C@H](C)[C@@H]1NC(=O)[C@H](C)N(C)C(=O)C[C@@H](C)NC(=O)[C@H](C2CCCC2)N(C)C(=O)C2(CCCC2)NC(=O)[C@@H]2CCCN2C(=O)[C@H](CCc2ccc(C(F)(F)F)c(Cl)c2)NC(=O)CN(C)C(=O)[C@H](Cc2ccc(Cl)cc2)N(C)C(=O)[C@@H]2CCCN2C(=O)CN(C)C1=O` [Compound 549] (cyclo([Ac5c][NMeGly(cPent)][d(β3hA)][NMeA]I[Sar]P[NMePhe(4-Cl)][Sar][hPhe(3-Cl-4-CF3)]P)) the figure was more than 500 nM; with `CC[C@H](C)[C@@H]1NC(=O)[C@H](C)N(C)C(=O)C[C@@H](C(=O)N2CCCCC2)N(C)C(=O)[C@H](C(C)C)N(C)C(=O)C2(CCCC2)NC(=O)[C@@H]2CCCN2C(=O)[C@H](CCc2ccc(C(F)(F)F)c(Cl)c2)NC(=O)[C@H]2CCCCN2C(=O)[C@H](CC2CCCCC2)N(C)C(=O)[C@@H]2CCN2C(=O)CN(C)C1=O` [Compound 553] ([NMeA]I[Sar][Aze][NMeCha][dPip][hPhe(3-Cl-4-CF3)]P[Ac5c][NMeV][NMeD]-Piperidide; lactam N-11), more than 500 nM.
With `C#CC[C@H]1C(=O)N(C)CC(=O)N[C@@H](CCc2ccc(C(F)(F)F)c(Cl)c2)C(=O)N2CCC[C@H]2C(=O)NC2(CCCC2)C(=O)N(C)[C@@H](C2CCCCC2)C(=O)N(C)[C@H](C(=O)N2CCCCC2)CC(=O)N(C)[C@@H](CC(C)C)C(=O)N[C@@H]([C@@H](C)CC)C(=O)N(C)CC(=O)N(C)CC(=O)N1C` [Compound 554] ([NMeL]I[Sar][Sar][NMePra][Sar][hPhe(3-Cl-4-CF3)]P[Ac5c][NMeChg][NMeD]-Piperidide; lactam N-11), the IC50 is more than 500 nM.
Consider `CC[C@H](C)[C@@H]1NC(=O)[C@H](CC(C)C)N(C)C(=O)C[C@@H](C(=O)N2CCCCC2)N(C)C(=O)[C@H](CC(C)C)NC(=O)C(C)(C)N(C)C(=O)[C@H](Cc2ccccc2F)NC(=O)[C@H](Cc2cccc(I)c2)NC(=O)CN(C)C(=O)[C@H](Cc2ccc(C)cc2)N(C)C(=O)CN(C)C(=O)CN(C)C1=O` [Compound 556] ([NMeL]I[Sar][Sar][NMePhe(4-Me)][Sar][Phe(3-I)][Phe(2-F)][NMeAib]L[NMeD]-Piperidide; lactam N-11), for which the IC50 was more than 500 nM.

(Values after patent publication US20240148821A1, “PHARMACEUTICAL USE OF CYCLIC PEPTIDE COMPOUND” (CHUGAI SEIYAKU KABUSHIKI KAISHA, priority 2021, published 2024).)
